# Experimental data from patent EP4483904A1, “POLYOXOMETALATES AS MEMBRANE CARRIERS” (Universität Wien, priority 2023, dated 2025).
# Test: Transport experiments in CF-loaded anionic vesicles
# Format: biochemical
# Conditions: DMPE/DPPG/CHOL (anionic), 13 µM phospholipids, 10 µM heptaArg
# Experimental: Anionic vesicles in neutral media: Anionic vesicles were prepared analogously except for the lipid composition, DMPE/DPPG/CHOL (4.4/10.4/2.6 mg, 1/2/1 molar ratio) in a 1:1 mixture of CHCl3 and MeOH (1mL), the hydration (60 mins) and extrusion were performed at 55 °C, and the employed buffers were 100 mM CF, 10 mM Tris, pH 7.4 and 10 mM Tris, 140 mM NaCl, pH 7.4 for rehydration and elution, respectively.
# Vesicles stock solutions (5-10 µL) were diluted with the corresponding buffer in a disposable plastic cuvette and gently stirred (total volume 2000 µL, final lipid concentration 13 µM). […] Fluorescence intensities were normalized to fractional emission as: I(t) = (It −I0)/(I∞ −I0) [formula]
# Where I0 = It before POM addition and […] = I∞ after lysis. For Hill analysis, It before lysis was defined as transport activity, Y, and plotted against POM concentration, c, and fitted to the Hill equation (2), to afford the activity in absence of POM, Y0, the maximal activity, Ymax, the concentration needed to achieve 50 % of maximal activity, EC50, and the Hill coefficient, n. Y = Y0 + (Ymax −Y0)/(1 + (((EC50)/(c)))^n) [formula]
# In the transport measurements, where different carriers (POMs) are tested with the same cargo, the activator efficiency (E) is determined by their capacity to transport the impermeable cargo to the intravesicular region and is characterized by Ymax, its maximal activity, and EC50, the effective activator concentration. An ideal carrier reaches high Ymax at low EC50. To count both factors, the activator efficiency is defined as: E = Ymax (pEC50)/(f) [formula] were pEC50 is the negative logarithm of the EC50, and fa scaling factor, which was set to 20.6 to calibrate the highest (previously known) activation efficiency, E, as 10.
EC50,Substance,E (activation efficiency),Ymax
60 µM,K4[α-Si^IVMo^VIW^VI11O40]·24H2O [[SiMoW11]^4-],3.6,61%
50 µM,K4[α-P^VV^VW^VI11O40]·4H2O [[PVW11]^4-],2.8,45%
